Assay [1] has as its target dopamine transporter (DAT) (Cavia porcellus, UniProt H0WCX4). Briefly: Dopamine transporter binding assay [3H]WIN 35,428. Set-up: species or system Guinea Pig. The settings on record: for inhibition at 10 µM: read-out: INH at 10 μM DAT. The method, then: DAT inhibition activity was tested according to the procedure described by J. Javitz et al., Mol. Pharmacol., 26: 35-44 (1984). The test results for a number of representative compounds of the invention are reported hereinbelow.
I. Dopamine Transporter Binding Assay [3H]WIN 35,428
• This assay was carried out according to the procedure described by Javitch, J. J. et al., Mol. Pharmacol. 26: 35-44; 1984
A. Tissue Preparation (Prepare all Solutions on Ice) • 1. Thaw frozen brains from male Guinea Pigs (in assay buffer) and place in 50 mM TRIS-HCl (pH 7.4 at 25° C. with 120 mM NaCl). Isolate striatum. • 2. Use a Polytron to homogenize tissue in 20 vols. (w/v) of 50 mM Tris-HCl (pH 7.4 at 25° C. with 120 mM NaCl). • 3. Centrifuge homogenate at 48,400×g for approximately 10 minutes at 4° C. Discard supernatant. • 4. Wash pellet an additional time as described in steps 2 and 3. • 5. Store pellet on ice until needed for binding assay. • 6. Using a Polytron (setting 5; approximately 10 seconds) resuspend pellet in 50 mM Tris-HCl (pH 7.4 at 25° C. with 120 mM NaCl) to an initial concentration of 10 mg/ml (original wet weight), such that the final concentration is 8 mg/ml or 4.0 mg tissue/tube.
B. Binding Reaction • 1. Each tube receives the following components: • 50 ul drug or vehicle • 50 ul [3H]-WIN 35,428 • 400 ul tissue suspension. • 2. Initiate binding reaction with the addition of tissue, and incubate for 120 minutes at 0° C. (on ice). • 3. Terminate binding reaction by rapid filtration of tube contents onto untreated Whatman GF/C filters. • 4. Rinse the assay tubes once with ice cold 50 mM TRIS HCl (pH 7.4 at 25° C. with 120 mM NaCl, BSA), then rapidly rinse the filters with 6×1 mls/tube of the same wash buffer. • 5. Radioactivity trapped onto the filters is assessed using LSM machine. Let sit for 3 hours in scint cocktail.
C. Dopamine Tranasporter Binding Assay
Materials and Reagents • 1. [3H]-WIN 35-428 is diluted to a concentration of 60 nM in 50 mM TRIS HCl (pH 7.4 at 25° C. with 120 mM NaCl). Thus, the final ligand concentration is 6 nM. • 2. Non-specific binding is defined as that remaining in the presence of 1×10^-6 M GBR12909 (room temperature cabinet). GBR12909 MW=523.5 g/mol. Will solubilize in 4% DMSO (sonicate 15 minutes). Aliquots can be used (1E-3). • 3. The reference compound for the assay is GBR12909 and is diluted in 4% DMSO and is then run at the following final concentrations: 1×10^−10, 5×10^−10, 2×10^−9, 5×10^−9, 1×10^−8, 2×10^−8, 5×10^−8, 1×10^−7, 2×10^−7, 5×10^−7, 1×10^−6, 5×10^−6. • 4. The positive control GBR12909 and is run at the final concentrations of: 2×10-8, 1×10^−7, 5×10^−7M. • 5. The Kd for the receptor is 28.0 nM. Buffers

The test system of assay [2] is male Swiss Webster mice. Briefly: Time-course (8 hr) mouse locomotor activity testing. The class given is in vivo. The settings on record: for Duration of suppression of spontaneous locomotor activity: FIGS. 6A and 6B; for ID50 (dose producing 1/2 maximal depressant activity): IP; for Planned comparisons against the vehicle group, horizontal activity counts in period of maximal depressant effect: ps<0.05. The protocol: A dose response study was conducted of locomotor depression induced by the compound of Example 3, according to NIDA's Medication Development Division (MDD) locomoter activity studies standard protocol. The study was conducted using 40 Digiscan locomotor activity testing chambers (40.5×40.5×30.5 cm) housed in sets of two, within sound attenuating chambers. A panel of infrared beams (16 beams) and corresponding photodetectors were located in the horizontal direction along the sides of each activity chamber. A 7.5 W incandescent light above each chamber provided dim illumination. Fans provided an 80 dB ambient noise level within the chamber. Separate groups of 8 non-habituated male Swiss Webster mice (Hsd:ND4, aged 2-3 months) were injected via the intraperitoneal (IP) route with either vehicle (2% methyl cellulose) or the compound of Example 3, above, (3, 10, 30 or 100 mg/kg) twenty minutes prior to locomotor activity testing. Just piro to placement in the apparatus, all mice received a saline injection IP. In all studies, horizontal activity (interruption of photocell beams) was measured for 1 hour within 10 minute periods. Testing was conducted with one mouse per activity chamber.
A time course/dose response study of the locomotor depression inducing effect of the compound of Example 3 was conducted, according to the same MDD locomotor activity studies time course protocol described immediately above, except that groups of 8 mice were injected with either vehicle (2% methylcellulose) or the compound of Example 3 (3, 10, 30 or 100 mg/kg), immediately prior to locomotor activity testing. Behavioral observations were recorded on each mouse at 30, 120 and 480 minutes following 100 mg/kg of the test compound. The vehicle used in this study was 2% methylcellulose.
A separate time course/dose response study of the locomotor depression inducing effect of the compound of Example 6 was also conducted, under the same conditions described above for testing of the compound of Example 3. Additional groups of 8 mice were injected with either vehicle (2% methylcellulose) or the test compound (3, 10, 30 or 100 mg/kg), immediately prior to locomotor activity testing. Behavioral observations were recorded on each mouse at 30, 120 and 480 minutes following 100 mg/kg of the test compound. The vehicle used in this study was 2% methylcellulose.
Depressant effects of 30 and 100 mg/kg occurred within 10 minutes following injection and lasted 140 to 160 minutes. The period 20-50 min was selected for analysis of dose-response data because this was the time period in which maximal suppression first appeared as a function of dose. The mean average horizontal activity counts/10 min for this 30-min period were fit to a linear function of log10 dose of the descending portion of the dose-effect curve (3 to 100 mg/kg dose range).
Depressant effects of 100 mg/kg occurred within 10 minutes following injection and lasted 160 minutes. The period 50-80 min was selected for analysis of dose-response data because this was the time period in which maximal suppression first appeared as a function of dose. The mean average horizontal activity counts/10 min for this 30-min period were fit to a linear function of log10 dose of the descending portion of the dose-effect curve (10 to 100 mg/kg dose range).

Chain of dopamine transporter (DAT) (H0WCX4 1-619): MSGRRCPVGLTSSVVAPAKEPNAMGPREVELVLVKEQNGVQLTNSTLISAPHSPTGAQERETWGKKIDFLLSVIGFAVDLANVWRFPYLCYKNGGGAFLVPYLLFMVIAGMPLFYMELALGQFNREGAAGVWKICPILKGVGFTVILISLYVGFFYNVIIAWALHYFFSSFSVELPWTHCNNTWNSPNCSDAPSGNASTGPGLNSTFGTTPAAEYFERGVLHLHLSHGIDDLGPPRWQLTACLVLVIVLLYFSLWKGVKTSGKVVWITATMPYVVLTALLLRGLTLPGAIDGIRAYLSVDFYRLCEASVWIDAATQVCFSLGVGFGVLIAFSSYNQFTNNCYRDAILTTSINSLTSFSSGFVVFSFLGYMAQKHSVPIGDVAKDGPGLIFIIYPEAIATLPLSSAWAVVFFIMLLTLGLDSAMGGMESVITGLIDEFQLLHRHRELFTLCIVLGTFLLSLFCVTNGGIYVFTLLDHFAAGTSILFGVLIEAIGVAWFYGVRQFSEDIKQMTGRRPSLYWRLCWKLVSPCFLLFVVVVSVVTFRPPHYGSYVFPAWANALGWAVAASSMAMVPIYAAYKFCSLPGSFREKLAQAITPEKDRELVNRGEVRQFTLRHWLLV

The term Ki denotes the dissociation constant of the complex between target and ligand, obtained from inhibition or displacement. Low readings indicate tighter binding, high ones weaker binding. With `Cc1ccc(C[n+]2[cH-]/c(=N\C(=O)Nc3ccccc3)on2)cc1` [Example 3, N-phenylcarbamoyl-3-(p-methyl-benzyl)-sydnonimine], in assay [1], the Ki was determined as 0.19 nM and the inhibition at 10 µM worked out at 94%. In addition, the “Onset of depressant effects following injection” value in assay [2] (30 and 100 mg/kg IP) was at most 10 min. Besides, in assay [2], the “Duration of suppression of spontaneous locomotor activity” value is listed as “at least 3 hours”; the “Planned comparisons against the vehicle group, horizontal activity counts in period of maximal depressant effect” value was “significant depressant effect for 30 and 100 mg/kg”. Further, in assay [2] (period 20-50 min, 3 to 100 mg/kg dose range), the “ID50 (dose producing 1/2 maximal depressant activity)” value is around 24.0 mg/kg.
Regarding `O=C(/N=c1\[cH-][n+](CCCc2ccccc2)no1)Nc1ccccc1` [Example 6, N-phenylcarbamoyl-3-(phenylpropyl)-sydnonimine], in assay [1], the affinity, expressed as Ki, was 25 nM and the inhibition at 10 µM came to 96%. Further, in assay [2] (100 mg/kg IP), the “Duration of depressant effects” value worked out at 160 min and the “Onset of depressant effects following injection” value is at most 10 min. Also, in assay [2], the “Duration of suppression of spontaneous locomotor activity” value was “at least 3 hours” and the “Planned comparisons against the vehicle group, horizontal activity counts in period of maximal depressant effect” value was “significant depressant effect for 100 mg/kg”. In assay [2] (period 50-80 min, 10 to 100 mg/kg dose range), the “ID50 (dose producing 1/2 maximal depressant activity)” value is given as around 30.2 mg/kg.

The record behind these values is patent US9604945B2, “Sydnonimines-specific dopamine reuptake inhibitors and their use in treating dopamine related disorders” (priority 2007, dated 2017).
